The text below walks through data of patent US20260234135A1, “CRYSTALLINE FORMS OR SALTS OF A DEUTERATED COMPOUND” (ALEBUND PHARMACEUTICALS (HONG KONG) LIMITED, priority 2023, published 2026).

A short description of this data set: Inter-conversion relationship (slurry competition) and form stability of free acid forms. The following applies: storage at RT for 1 month, XRPD.

In the case of `[2H]C([2H])(Cc1nc(-c2ccccc2)oc1C)Oc1ccc(C[C@H](OC)C(=O)O)c2sccc12` [free acid Form D], the Form after storage result is given as “converted to free acid Form E”.
